According to patent publication US7129366B2, “Group of a novel anti-cancer compounds with specific structure” (Yang's Biochem Co. Ltd., priority 2001, dated 2006):
Where two headings read alike, the source gives them in different places. Marks after values point to notes of the source that are not given here.

Tests used:
[1] = tested on: reticuloendothelial system; test: Phagocytic function of reticuloendothelial system, serum clearance index of carbon grain; format: in vivo, ICR strain mice
Experimental: One group was given N.S. at 20 ml/kg i.g. as a normal control. A positive control group was given CTX i.g. at 25 mg/kg on day 1 and 6.

serum hemolysinogenesis = format: in vivo, ICR strain mice
Experimental: The method of administration in each group was the same as above (phagocytic function). However, on the 6th day after administration, 0.2 ml 3:5 (V/V) sheep red blood cell (RBC) suspension was injected i.p. into each mouse. 4 days later (day 10), blood was drawn from all animals and serum was prepared and then diluted 600 times. 1 ml diluted serum was mixed with 0.5 ml 10% sheep RBC suspension. N.S. was used as blank control. All samples were incubated at 37° C. for 30 minutes, and centrifuged (2000 rev/min) for 5 minutes. The supernatant was collected for measurement of OD540 and HC50 was calculated.

[2] = tested on: immune organs (thymus and pancreas); test: Weights of immune organs (organ indices); format: in vivo, ICR strain mice
Description: The mice were sacrificed after the Serum hemolysinogenesis test above and the thymus and pancreas were collected and weighed.

mouse sarcoma S180 = test: Mouse sarcoma S180 model, inhibition of tumor growth
Experimental: 50 female ICR strain mice, weighing 19–22 g, were randomly divided into 5 groups of 10 each. S180 sarcoma mass (about 2 mm^3 each) was transplanted subcutaneously into the right armpits of all animals following standard procedure. 3 test groups were given N-(12-methyl-tridecyl)hydrazine hydrochloride (Sample) at 0.1, 0.2, and 0.4 g/kg intragastrically (i.g.) daily for 11 days. The positive control group was given a single dose of cytoxan (CTX) i.g. (25 mg/kg) on day 1. The negative control group was given 0.8% Tween 80 at 0.4 ml/10 g daily for 11 days. On the 12th day, all mice were sacrificed and the tumor was isolated and weighed. The rate of inhibition of tumor growth was calculated and subject to t-test.

[3] = tested on: oral adnoma and tongue cancer; test: Topical application to patients of oral adnoma and tongue cancer; format: in vivo, human; conditions: oil state applied directly on focus surface, about one week later
Description: 12-Methyl-2-tetradecenoic acid in an oil state was directly applied on the focus surface of oral or tongue to patients of oral adnoma and tongue cancer.

[4] = tested on: body skin ulcerous wounds (inflammation); test: Topical application to patients with body skin ulcerous wounds; format: in vivo, human; conditions: oil state applied directly on inflamed surface
Description: 12-Methyl-2-tetradecenoic acid in an oil state was directly applied on the inflamed surface of patients with body skin ulcerous wounds.

UVB-induced skin cancer = test: Prevention of ultraviolet B ray (UVB)-induced skin cancer, DMBA-initiated; format: in vivo, SKH-1 hairless mice; conditions: topical 200 μl of 10% Sample solution once a day, UVB 180 mJ/cm^2 per day, end of 30 weeks
Experimental: N-(12-methyl-tridecyl)hydrazine hydrochloride (Sample) was resolved with 0.8% Tween resulting in a final concentration of 10%.
Forty female SKH-1 hairless mice were randomly divided into control and test groups of 20 each. Each mouse in both groups was treated topically once with DMBA (5.12 μg dissolved in 200 μl acetone solution) to achieve tumor initiation. One week later (day 8), animals in test group started to receive topical application of 200 μl. Sample solution once a day. The control group received 200 μl Tween 80 solvent instead every day. Thirty minutes after the application, animals in both groups were exposed to UVB (290–320 nm) radiation at the dosage of 180 mJ/cm^2 per day to induce growth of tumor. The animals were evaluated for tumor development at the end of 30 weeks.

[5] = Sample 0.1 g/kg i.g. + CTX 25 mg/kg
[6] = Sample 0.4 g/kg i.g. + CTX 25 mg/kg
[7] = normal mice, Sample 0.4 g/kg i.g.

SMILES: O=P1(N(CCCl)CCCl)NCCCO1 (centres unmarked) [CTX, cytoxan, reference compound]
- K (X ± SD), serum clearance index of carbon grain ([1]; CTX 25 mg/kg i.g. on day 1 and 6 alone): 0.0260 ± 0.0116
- HC50 (X ± SD) (serum hemolysinogenesis; CTX 25 mg/kg i.g. alone): 21.83 ± 4.29
- Indices of pancreas ([2]; CTX 25 mg/kg i.g. alone): 2.154 ± 1.189^ mg/10 g avoirdupois
- Indices of thymus ([2]; CTX 25 mg/kg i.g. alone): 1.296 ± 0.665^ mg/10 g avoirdupois
- Inhibition Rate (mouse sarcoma S180; CTX 25 mg/kg i.g. single dose on day 1): 71.82%
- Tumor Weight (X ± SD) (mouse sarcoma S180; CTX 25 mg/kg i.g. single dose on day 1, 12th day): 0.31 ± 0.11^b g
- Body Weight after treatment (X ± SD) (mouse sarcoma S180; S180 mice, CTX 25 mg/kg i.g. single dose on day 1): 25.6 ± 1.6 g

SMILES: CCC(C)CCCCCCCC/C=C/C(=O)O (centres unmarked) [Compound 1, 12-Methyl-2-tetradecenoic acid]
- effect on focus of oral adnoma and tongue cancer [3]: the focus reduced, swelling disappeared
- anti-inflammation function compared to common anti-inflammatory cream [4]: better anti-inflammation function
- healing of ulcerous wound [4]: the ulcerous wound healed quickly

SMILES: CC(C)CCCCCCCCCCCNN.Cl [Compound 45, N-(12-methyl-tridecyl)hydrazine hydrochloride]
- average size of cancer smaller than control (UVB-induced skin cancer): 85%
- reduction in tumor incidence compared to control group (UVB-induced skin cancer): 45%
- effect on the clearance of Carbon grain ([1]; CTX-treated mouse, Sample 100 and 400 mg/kg): improve the clearance of Carbon grain in CTX-treated mouse to a certain extent
- K (X ± SD), serum clearance index of carbon grain ([1]; Sample 100 mg/kg i.g. daily for 9 days + CTX 25 mg/kg on day 1 and 6): 0.0433 ± 0.0401
- K (X ± SD), serum clearance index of carbon grain ([1]; Sample 400 mg/kg i.g. daily for 9 days + CTX 25 mg/kg on day 1 and 6): 0.0603 ± 0.0371
- effect on the Clearance Index of Carbon grain ([1]; normal mouse (P1,3>0.05)): no obvious effect
- K (X ± SD), serum clearance index of carbon grain ([1]; normal mouse, Sample 400 mg/kg i.g. daily for 9 days): 0.0792 ± 0.0230
- HC50 (X ± SD) (serum hemolysinogenesis; [5]): 22.45 ± 4.12
- HC50 (X ± SD) (serum hemolysinogenesis; [6]): 24.01 ± 3.87
- HC50 (X ± SD) (serum hemolysinogenesis; normal mouse, Sample 0.4 g/kg i.g.): 32.08 ± 5.06
- effects on serum hemolysinogenesis (serum hemolysinogenesis; normal or immune-compromised mouse): no obvious effects
- Indices of pancreas [2, 5]: 2.459 ± 0.799^ mg/10 g avoirdupois
- Indices of thymus [2, 5]: 2.448 ± 0.603^a mg/10 g avoirdupois
- Indices of pancreas [2, 6]: 3.506 ± 1.223^ mg/10 g avoirdupois
- Indices of thymus [2, 6]: 3.307 ± 0.721^a mg/10 g avoirdupois
- indices of immune organs after combined administration ([2]; mice treated by CTX, combined with Sample): these indices increased
- effect on the indices of immune organs ([2]; normal mice, thymus and pancreas (P1,3>0.05)): no significant effect
- Indices of pancreas [2, 7]: 4.541 ± 0.508^a mg/10 g avoirdupois
- Indices of thymus [2, 7]: 3.617 ± 1.334^a mg/10 g avoirdupois
- Inhibition Rate (mouse sarcoma S180; Sample 100 mg/kg i.g. daily for 11 days): 36.36%
- Tumor Weight (X ± SD) (mouse sarcoma S180; Sample 100 mg/kg i.g. daily for 11 days, 12th day): 0.70 ± 0.12^b g
- Inhibition Rate (mouse sarcoma S180; Sample 200 mg/kg i.g. daily for 11 days): 62.73%
- Tumor Weight (X ± SD) (mouse sarcoma S180; Sample 200 mg/kg i.g. daily for 11 days, 12th day): 0.41 ± 0.10^b g
- Inhibition Rate (mouse sarcoma S180; Sample 400 mg/kg i.g. daily for 11 days): 70.00%
- Tumor Weight (X ± SD) (mouse sarcoma S180; Sample 400 mg/kg i.g. daily for 11 days, 12th day): 0.33 ± 0.10^b g
